# From patent publication EP1247803A2, “Indolinone compounds suitable for modulation of protein kinases” (Sugen, Inc., priority 1996, dated 1998)
# Assays:
# [1] = target: PDGF-R (Homo sapiens, UniProt P09619); assay: PDGF-R ELISA; format: cell-based
# From the text: A PDGF-R ELISA is described in International Patent Publication No. WO 96/40116, published December 19, 1996 by Tang et al.
# [2] = target: T1, EGFR (Homo sapiens, UniProt P00533); assay: EGFR ELISA assay (in vitro kinase activity, EGFR captured from A431 cell lysate); format: biochemical; parameters: concentration or dose not given beside the values
# T1 construct: Add 7 ug A431 cell lysate per well (EGFR source); endogenous in cells; host or cells: A431
# How it was run: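 EGFR from A431 lysate was captured on plates coated with anti-EGFR antibody. Compounds were added 30 min before a 5 min phosphorylation with 3 µM ATP/5 mM MnCl2, which was stopped with 20 mM EDTA. Phosphotyrosine was detected with rabbit anti-phosphotyrosine, then a peroxidase-conjugated secondary and ABTS/H2O2, read at 410 nm.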
# [3] = system: MET; assay: MET biochemical kinase assay; parameters: species or system human; concentration or dose not given beside the values
# How it was run: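 Human MET was captured from cell lysates onto ELISA plates via goat anti-rabbit Fc and rabbit polyclonal antibody to the MET cytoplasmic domain. After washing, test compounds and kinase buffer with ATP and divalent metal ions were added. Phosphotyrosine was detected with HRP-conjugated anti-phosphotyrosine antibody and TMB colorimetric read-out.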
# T1 sequence (P00533 25-1210): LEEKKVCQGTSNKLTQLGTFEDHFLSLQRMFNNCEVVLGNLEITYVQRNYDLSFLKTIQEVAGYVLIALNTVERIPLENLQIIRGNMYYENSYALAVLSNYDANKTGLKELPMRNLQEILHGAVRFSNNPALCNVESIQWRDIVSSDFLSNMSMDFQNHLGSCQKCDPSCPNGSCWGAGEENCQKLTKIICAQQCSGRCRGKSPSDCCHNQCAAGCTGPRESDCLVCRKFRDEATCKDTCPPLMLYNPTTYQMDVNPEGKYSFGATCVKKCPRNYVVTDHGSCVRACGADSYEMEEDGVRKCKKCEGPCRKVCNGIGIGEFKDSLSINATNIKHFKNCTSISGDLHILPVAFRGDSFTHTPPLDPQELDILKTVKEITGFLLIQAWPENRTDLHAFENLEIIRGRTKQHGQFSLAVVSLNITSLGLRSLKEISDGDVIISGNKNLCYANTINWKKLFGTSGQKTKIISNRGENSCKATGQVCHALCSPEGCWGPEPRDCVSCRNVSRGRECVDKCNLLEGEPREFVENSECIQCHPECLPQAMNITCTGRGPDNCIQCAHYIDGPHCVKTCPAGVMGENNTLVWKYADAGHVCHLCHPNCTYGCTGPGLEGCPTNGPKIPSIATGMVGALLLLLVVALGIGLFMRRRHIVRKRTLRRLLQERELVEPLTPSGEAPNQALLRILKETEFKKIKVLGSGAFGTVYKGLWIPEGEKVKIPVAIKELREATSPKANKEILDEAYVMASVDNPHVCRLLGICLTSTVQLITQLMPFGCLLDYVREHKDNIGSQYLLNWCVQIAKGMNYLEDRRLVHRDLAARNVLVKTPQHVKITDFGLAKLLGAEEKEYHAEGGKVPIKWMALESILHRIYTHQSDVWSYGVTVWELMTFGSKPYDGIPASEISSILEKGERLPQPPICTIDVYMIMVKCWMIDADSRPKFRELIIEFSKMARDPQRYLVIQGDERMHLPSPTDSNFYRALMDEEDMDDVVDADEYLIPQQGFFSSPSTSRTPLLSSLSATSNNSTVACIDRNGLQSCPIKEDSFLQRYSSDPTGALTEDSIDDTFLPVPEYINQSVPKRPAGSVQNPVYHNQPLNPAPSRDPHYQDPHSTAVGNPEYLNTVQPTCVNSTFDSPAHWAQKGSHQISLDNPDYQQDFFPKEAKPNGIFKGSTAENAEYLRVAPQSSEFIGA
# PDGF-R, sequence (P09619 33-1106, species assumed): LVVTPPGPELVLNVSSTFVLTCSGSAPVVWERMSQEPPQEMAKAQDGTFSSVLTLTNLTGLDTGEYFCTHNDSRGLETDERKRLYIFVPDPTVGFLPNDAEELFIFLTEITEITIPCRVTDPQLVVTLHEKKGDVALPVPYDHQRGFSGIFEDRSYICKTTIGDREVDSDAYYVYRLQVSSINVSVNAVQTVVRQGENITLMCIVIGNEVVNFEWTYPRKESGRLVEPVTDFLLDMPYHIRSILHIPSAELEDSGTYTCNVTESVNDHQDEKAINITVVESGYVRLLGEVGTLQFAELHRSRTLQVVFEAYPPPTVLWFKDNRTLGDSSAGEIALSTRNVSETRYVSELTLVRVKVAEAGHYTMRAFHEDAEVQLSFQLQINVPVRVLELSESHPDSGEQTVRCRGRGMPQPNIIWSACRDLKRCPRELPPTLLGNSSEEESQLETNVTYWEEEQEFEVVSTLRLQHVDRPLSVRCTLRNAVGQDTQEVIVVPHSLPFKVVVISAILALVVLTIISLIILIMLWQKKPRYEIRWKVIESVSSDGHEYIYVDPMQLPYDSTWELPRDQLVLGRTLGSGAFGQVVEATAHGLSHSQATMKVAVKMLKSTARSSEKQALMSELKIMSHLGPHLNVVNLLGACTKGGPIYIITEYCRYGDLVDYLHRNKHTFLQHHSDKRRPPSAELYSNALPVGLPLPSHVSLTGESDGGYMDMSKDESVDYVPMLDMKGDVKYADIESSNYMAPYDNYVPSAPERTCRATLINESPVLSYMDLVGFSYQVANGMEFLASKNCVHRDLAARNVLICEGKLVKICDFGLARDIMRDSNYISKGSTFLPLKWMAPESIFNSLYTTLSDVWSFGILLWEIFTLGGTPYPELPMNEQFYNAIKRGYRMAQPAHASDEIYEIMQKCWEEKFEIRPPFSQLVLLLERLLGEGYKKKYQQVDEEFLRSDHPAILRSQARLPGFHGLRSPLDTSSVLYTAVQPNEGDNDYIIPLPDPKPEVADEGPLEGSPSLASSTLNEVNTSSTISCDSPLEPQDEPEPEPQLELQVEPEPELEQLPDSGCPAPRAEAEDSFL
SMILES,PDGF Kinase %Inhibition [1] [%],Biochem EGFR %Inhibition [2] [%],Met Kinase % Inhibition [3] [%]
COc1ccc2ccccc2c1C=C1C(=O)Nc2ccc(S(=O)(=O)Nc3ccc(C(F)(F)F)cc3)cc21 [10729/E02],28.4,8.0,11.7
O=C1Nc2ccc(CCCl)cc2C1=Cc1ccc2c(c1)Cc1ccccc1-2 [10728/G06],-13.3,-14.1,25.3
COc1cc(C=C2C(=O)Nc3ccc(S(=O)(=O)Nc4ccc(C(F)(F)F)cc4)cc32)cc(OC)c1 [10728/E04],23.2,10.1,25.6
COc1ccc(C=C2C(=O)Nc3ccc(I)cc32)c2ccccc12 [10729/B03],-9.4,38.2,57.3
COc1ccc(C=C2C(=O)Nc3c(Br)cc(Br)cc32)c2ccccc12 [10729/A03],1.9,27.0,27.5
O=C1Nc2ccc(S(=O)(=O)Nc3ccc(C(F)(F)F)cc3)cc2C1=Cc1ccccn1 [10729/E07],29.6,26.7,21.6
O=C(O)COc1ccccc1C=C1C(=O)Nc2ccc(CCCl)cc21 [10728/G10],-0.8,-12.5,27.9
Cc1c(Br)ccc2c1C(=Cc1cccc(Oc3ccccc3)c1)C(=O)N2 [10729/C06],3.1,38.2,15.2
CNS(=O)(=O)c1ccc2c(c1)C(=Cc1c(F)cccc1C(F)(F)F)C(=O)N2 [10728/D09],-3.9,-2.9,27.6
COc1ccc(OC)c(C=C2C(=O)Nc3ccc(S(=O)(=O)NN4CCOCC4)cc32)c1 [10728/F02],7.2,4.4,25.6
O=C1Nc2ccc(S(=O)(=O)Nc3ccc(C(F)(F)F)cc3)cc2C1=Cc1cccc(C(F)(F)F)c1F [10728/E07],28.0,21.8,79.8
O=C1Nc2ccc(I)cc2C1=Cc1ccc(N2CCCC2)cc1 [10729/B10],-13.9,68.3,32.6
COc1ccc2ccccc2c1C=C1C(=O)Nc2ccc(Br)c(C)c21 [10729/C02],9.1,16.9,18.2
COc1ccc(OC)c(C=C2C(=O)Nc3ccc(CCCl)cc32)c1 [10728/G02],0.9,-10.2,7.1
Cc1c(Br)ccc2c1C(=Cc1cccnc1)C(=O)N2 [10729/C08],-13.6,25.4,55.7
Cc1c(Br)ccc2c1C(=Cc1ccncc1)C(=O)N2 [10729/C09],-34.8,33.2,60.4
Cc1ccsc1C=C1C(=O)Nc2ccc(I)cc21 [10729/B05],-25.7,50.6,51.0
O=C1Nc2ccc(CCCl)cc2C1=Cc1c(F)cccc1C(F)(F)F [10728/G09],6.3,-8.0,22.2
COc1ccc(C=C2C(=O)Nc3ccc(Br)c(C)c32)c2ccccc12 [10729/C03],13.7,25.7,13.5
CNS(=O)(=O)c1ccc2c(c1)C(=Cc1cccc(C(F)(F)F)c1F)C(=O)N2 [10728/D07],2.3,2.4,21.8
Cc1ccsc1C=C1C(=O)Nc2ccc(Br)c(C)c21 [10729/C05],-5.6,21.8,15.5
Cc1c(Br)ccc2c1C(=CC1C=CCCC1)C(=O)N2 (stereo not drawn) [10729/C11],-17.4,35.9,41.3
O=C1Nc2ccc(S(=O)(=O)Nc3ccc(C(F)(F)F)cc3)cc2C1=Cc1cccc(Oc2ccccc2)c1 [10729/E06],24.7,43.7,-0.7
O=C1Nc2ccc(I)cc2C1=Cc1cccnc1 [10729/B08],-13.6,53.2,66.0
Cc1c(Br)ccc2c1C(=Cc1ccccn1)C(=O)N2 [10729/C07],-1.8,60.8,58.4
COc1cccc(OC)c1C=C1C(=O)Nc2ccc(S(=O)(=O)Nc3ccc(C(F)(F)F)cc3)cc21 [10728/E03],12.0,9.5,11.9
CNS(=O)(=O)c1ccc2c(c1)C(=Cc1ccc(OC)c3ccccc13)C(=O)N2 [10729/D03],14.1,15.5,22.6
COc1cc(C=C2C(=O)Nc3ccc(S(=O)(=O)Nc4ccc(C(F)(F)F)cc4)cc32)cc2c1OCO2 [10728/E11],8.9,-5.9,53.1
COc1cccc(OC)c1C=C1C(=O)Nc2ccc(CCCl)cc21 [10728/G03],-8.4,-2.0,8.8
O=C(O)COc1ccccc1C=C1C(=O)Nc2ccc(S(=O)(=O)Nc3ccc(C(F)(F)F)cc3)cc21 [10728/E10],13.8,-20.8,57.2
